Results as given in PubChem BioAssay (NCI).
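Cells were grown in 96-well plates and exposed to each compound for 48 hours at five concentrations; endpoints were interpolated linearly between bracketing concentrations, or set to the highest concentration if not reached. The concentration for full growth arrest is given as TGI.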

Assays:
Test in all cases: DTP human tumour cell line panel, 48 h
A498 renal = test system: A498 renal
COLO 205 colon = test system: COLO 205 colon
MALME-3M melanoma = test system: MALME-3M melanoma
SNB-78 CNS = test system: SNB-78 CNS
HOP-62 NSCLC = test system: HOP-62 NSCLC
HCT-116 colon = test system: HCT-116 colon
DMS 114 small cell lung = test system: DMS 114 small cell lung
ACHN renal = test system: ACHN renal
NCI-H460 lung = test system: NCI-H460 lung
786-0 renal = test system: 786-0 renal
KM20L2 colon = test system: KM20L2 colon
KM12 colon = test system: KM12 colon
HL-60(TB) leukemia = test system: HL-60(TB) leukemia
K-562 leukemia = test system: K-562 leukemia
CAKI-1 renal = test system: CAKI-1 renal
OVCAR-4 ovarian = test system: OVCAR-4 ovarian
SF-539 CNS = test system: SF-539 CNS
SK-OV-3 ovarian = test system: SK-OV-3 ovarian
HOP-92 NSCLC = test system: HOP-92 NSCLC
TK-10 renal = test system: TK-10 renal
OVCAR-5 ovarian = test system: OVCAR-5 ovarian
SK-MEL-5 melanoma = test system: SK-MEL-5 melanoma
DMS 273 small cell lung = test system: DMS 273 small cell lung
UACC-257 melanoma = test system: UACC-257 melanoma
SNB-19 CNS = test system: SNB-19 CNS
SNB-75 CNS = test system: SNB-75 CNS
SF-295 CNS = test system: SF-295 CNS
A549 NSCLC = test system: A549 NSCLC
SN12C renal = test system: SN12C renal
RPMI-8226 leukemia = test system: RPMI-8226 leukemia
HOP-18 NSCLC = test system: HOP-18 NSCLC
SF-268 CNS = test system: SF-268 CNS
SK-MEL-2 melanoma = test system: SK-MEL-2 melanoma
LXFL 529 NSCLC = test system: LXFL 529 NSCLC
SW-620 colon = test system: SW-620 colon
DLD-1 colon = test system: DLD-1 colon
HT29 colon = test system: HT29 colon
HCC-2998 colon = test system: HCC-2998 colon
UO-31 renal = test system: UO-31 renal
MOLT-4 leukemia = test system: MOLT-4 leukemia
SR leukemia = test system: SR leukemia
M14 melanoma = test system: M14 melanoma
NCI-H226 lung = test system: NCI-H226 lung
NCI-H522 lung = test system: NCI-H522 lung
HCT-15 colon = test system: HCT-15 colon
IGROV1 ovarian = test system: IGROV1 ovarian
LOX IMVI melanoma = test system: LOX IMVI melanoma
RXF-631 renal = test system: RXF-631 renal
UACC-62 melanoma = test system: UACC-62 melanoma
RXF 393 renal = test system: RXF 393 renal
CCRF-CEM leukemia = test system: CCRF-CEM leukemia
OVCAR-8 ovarian = test system: OVCAR-8 ovarian
M19-MEL melanoma = test system: M19-MEL melanoma
U251 CNS = test system: U251 CNS
BT-549 breast = test system: BT-549 breast
PC-3 prostate = test system: PC-3 prostate
MDA-MB-231 breast = test system: MDA-MB-231 breast
MDA-MB-435 = test system: MDA-MB-435
SK-MEL-28 melanoma = test system: SK-MEL-28 melanoma
MDA-N = test system: MDA-N
DU-145 prostate = test system: DU-145 prostate
MCF7 breast = test system: MCF7 breast
HS 578T breast = test system: HS 578T breast
T-47D breast = test system: T-47D breast
NCI-H23 lung = test system: NCI-H23 lung
EKVX NSCLC = test system: EKVX NSCLC
OVCAR-3 ovarian = test system: OVCAR-3 ovarian
XF 498 CNS = test system: XF 498 CNS

COc1cc2c(c(OC)c1OC)CCNC2C1=C(O)COC1=O (stereo unspecified)
TGI (A498 renal): > 100 µM | TGI (COLO 205 colon): > 100 µM | TGI (MALME-3M melanoma): > 100 µM | TGI (SNB-78 CNS): > 100 µM | TGI (HOP-62 NSCLC): > 100 µM | TGI (HCT-116 colon): > 100 µM | TGI (DMS 114 small cell lung): > 100 µM | TGI (ACHN renal): > 100 µM | TGI (NCI-H460 lung): > 100 µM | TGI (786-0 renal): > 100 µM | TGI (KM20L2 colon): > 100 µM | TGI (KM12 colon): > 100 µM | TGI (HL-60(TB) leukemia): > 100 µM | TGI (K-562 leukemia): > 100 µM | TGI (CAKI-1 renal): > 100 µM | TGI (OVCAR-4 ovarian): > 100 µM | TGI (SF-539 CNS): > 100 µM | TGI (SK-OV-3 ovarian): > 100 µM | TGI (HOP-92 NSCLC): > 100 µM | TGI (TK-10 renal): > 100 µM | TGI (OVCAR-5 ovarian): > 100 µM | TGI (SK-MEL-5 melanoma): > 100 µM | TGI (DMS 273 small cell lung): > 100 µM | TGI (UACC-257 melanoma): > 100 µM | TGI (SNB-19 CNS): > 100 µM | TGI (SNB-75 CNS): > 100 µM | TGI (SF-295 CNS): > 100 µM | TGI (A549 NSCLC): > 100 µM | TGI (SN12C renal): > 100 µM | TGI (RPMI-8226 leukemia): > 100 µM | TGI (HOP-18 NSCLC): > 100 µM | TGI (SF-268 CNS): > 100 µM | TGI (SK-MEL-2 melanoma): > 100 µM | TGI (LXFL 529 NSCLC): > 100 µM | TGI (SW-620 colon): > 100 µM | TGI (DLD-1 colon): > 100 µM | TGI (HT29 colon): > 100 µM | TGI (HCC-2998 colon): > 100 µM | TGI (UO-31 renal): > 100 µM | TGI (MOLT-4 leukemia): > 100 µM | TGI (SR leukemia): > 100 µM | TGI (M14 melanoma): > 100 µM | TGI (NCI-H226 lung): 99.5 µM | TGI (NCI-H522 lung): > 100 µM | TGI (HCT-15 colon): > 100 µM | TGI (IGROV1 ovarian): > 100 µM | TGI (LOX IMVI melanoma): > 100 µM | TGI (RXF-631 renal): > 100 µM | TGI (UACC-62 melanoma): > 100 µM | TGI (RXF 393 renal): > 100 µM | TGI (CCRF-CEM leukemia): > 100 µM | TGI (OVCAR-8 ovarian): > 100 µM | TGI (M19-MEL melanoma): > 100 µM | TGI (U251 CNS): > 100 µM

CN(C)CCNC(=O)c1cccc2nc3c(ccc4ccccc43)nc12
TGI (BT-549 breast): 22.8 µM | TGI (A498 renal): 15.5 µM | TGI (COLO 205 colon): 11.3 µM | TGI (MALME-3M melanoma): 3.05 µM | TGI (SNB-78 CNS): 19.4 µM | TGI (HOP-62 NSCLC): 7.88 µM | TGI (HCT-116 colon): 5.68 µM | TGI (DMS 114 small cell lung): 8.12 µM | TGI (ACHN renal): 4.34 µM | TGI (NCI-H460 lung): 1.91 µM | TGI (786-0 renal): 17.6 µM | TGI (KM20L2 colon): 3.15 µM | TGI (KM12 colon): 6.9 µM | TGI (HL-60(TB) leukemia): 3.98 µM | TGI (PC-3 prostate): 10.1 µM | TGI (K-562 leukemia): 4.86 µM | TGI (CAKI-1 renal): 12.9 µM | TGI (OVCAR-4 ovarian): 5.27 µM | TGI (SF-539 CNS): 3.59 µM | TGI (MDA-MB-231 breast): 4.12 µM | TGI (SK-OV-3 ovarian): 24.2 µM | TGI (HOP-92 NSCLC): 17.3 µM | TGI (TK-10 renal): 20.6 µM | TGI (OVCAR-5 ovarian): 15 µM | TGI (SK-MEL-5 melanoma): 4.03 µM | TGI (MDA-MB-435): 13.7 µM | TGI (DMS 273 small cell lung): > 100 µM | TGI (UACC-257 melanoma): 3.4 µM | TGI (SK-MEL-28 melanoma): 4.37 µM | TGI (MDA-N): 3.21 µM | TGI (SNB-19 CNS): 18.1 µM | TGI (DU-145 prostate): 16.4 µM | TGI (SNB-75 CNS): 16.5 µM | TGI (MCF7 breast): 3.27 µM | TGI (SF-295 CNS): 14.3 µM | TGI (A549 NSCLC): 12.2 µM | TGI (HS 578T breast): 22.8 µM | TGI (SN12C renal): 14.6 µM | TGI (RPMI-8226 leukemia): 6.66 µM | TGI (HOP-18 NSCLC): 29.9 µM | TGI (SF-268 CNS): 2.19 µM | TGI (SK-MEL-2 melanoma): 3.86 µM | TGI (LXFL 529 NSCLC): 14 µM | TGI (SW-620 colon): 3.61 µM | TGI (DLD-1 colon): 8.25 µM | TGI (HT29 colon): 4.08 µM | TGI (HCC-2998 colon): 7.18 µM | TGI (UO-31 renal): 14.9 µM | TGI (MOLT-4 leukemia): 1.6 µM | TGI (SR leukemia): 4.25 µM | TGI (M14 melanoma): 11 µM | TGI (NCI-H226 lung): 10.9 µM | TGI (NCI-H522 lung): 18.7 µM | TGI (HCT-15 colon): 4.6 µM | TGI (IGROV1 ovarian): 22.2 µM | TGI (LOX IMVI melanoma): 2.44 µM | TGI (RXF-631 renal): 2.43 µM | TGI (UACC-62 melanoma): 5.2 µM | TGI (T-47D breast): 20.6 µM | TGI (RXF 393 renal): 9.54 µM | TGI (CCRF-CEM leukemia): 4.68 µM | TGI (NCI-H23 lung): 15.9 µM | TGI (OVCAR-8 ovarian): 7.84 µM | TGI (EKVX NSCLC): 17.8 µM | TGI (OVCAR-3 ovarian): 19.7 µM | TGI (M19-MEL melanoma): 3.02 µM | TGI (U251 CNS): 4.49 µM

CC1(C)C(=NNC(=S)NN)C(C)(C)C1=NNC(=S)NN
TGI (COLO 205 colon): > 100 µM | TGI (MALME-3M melanoma): > 100 µM | TGI (HOP-62 NSCLC): > 100 µM | TGI (DMS 114 small cell lung): > 100 µM | TGI (ACHN renal): > 100 µM | TGI (XF 498 CNS): > 100 µM | TGI (786-0 renal): > 100 µM | TGI (KM20L2 colon): > 100 µM | TGI (K-562 leukemia): > 100 µM | TGI (CAKI-1 renal): > 100 µM | TGI (OVCAR-4 ovarian): > 100 µM | TGI (SF-539 CNS): > 100 µM | TGI (SK-OV-3 ovarian): > 100 µM | TGI (HOP-92 NSCLC): > 100 µM | TGI (TK-10 renal): > 100 µM | TGI (OVCAR-5 ovarian): > 100 µM | TGI (SK-MEL-5 melanoma): > 100 µM | TGI (UACC-257 melanoma): > 100 µM | TGI (SK-MEL-28 melanoma): > 100 µM | TGI (SNB-19 CNS): > 100 µM | TGI (SNB-75 CNS): > 100 µM | TGI (SF-295 CNS): > 100 µM | TGI (A549 NSCLC): > 100 µM | TGI (SN12C renal): > 100 µM | TGI (RPMI-8226 leukemia): > 100 µM | TGI (SF-268 CNS): > 100 µM | TGI (SK-MEL-2 melanoma): > 100 µM | TGI (SW-620 colon): > 100 µM | TGI (DLD-1 colon): > 100 µM | TGI (HT29 colon): > 100 µM | TGI (HCC-2998 colon): > 100 µM | TGI (M14 melanoma): > 100 µM | TGI (NCI-H226 lung): > 100 µM | TGI (NCI-H522 lung): > 100 µM | TGI (IGROV1 ovarian): > 100 µM | TGI (LOX IMVI melanoma): > 100 µM | TGI (RXF-631 renal): > 100 µM | TGI (UACC-62 melanoma): > 100 µM | TGI (RXF 393 renal): > 100 µM | TGI (CCRF-CEM leukemia): > 100 µM | TGI (NCI-H23 lung): > 100 µM | TGI (OVCAR-8 ovarian): > 100 µM | TGI (EKVX NSCLC): > 100 µM | TGI (OVCAR-3 ovarian): > 100 µM | TGI (M19-MEL melanoma): > 100 µM
